Measured values published in patent US4479945A, “Inter-m-phenylene-prostacyclin analogues and use thereof in inhibiting blood platelet aggregation” (Chinoin Gyogyszer Es Vegyeszeti Termekek Gyara R.T., priority 1981, dated 1984).
In brackets after ≈: the same amount, converted by molar mass. Entries after “also recorded” stand apart in the source; their conditions may differ.

Experiments:
blood pressure = assay: Antihypertensive activity (blood pressure reduction, ED25) on narcotized rats; assay type: in vivo, rat; conditions: for relative anti-hypertensive efficiency ED25 PGI2 /ED25 test-compound: molar dose for 25 mmHg blood pressure reduction, narcotized rats, sodium salts; for hypotensive / antihypertensive side effect (in words): compared with PGI2 or compounds of the state of art
Protocol: The antihypertensive activity was determined on narcotized rats. From the data of the blood pressure tests the molar dose /ED25 / inducing 25 mmHg /3.33 kPa/ blood pressure reduction was calculated.

thrombocyte aggregation [1] = assay: Thrombocyte (blood platelet) aggregation, Payton aggregometer, induced with 2 μM ADP, plasma enriched in thrombocytes (PRP); assay type: cell-based, human; conditions: for antiaggregatory activity (in words): compared with PGI2 or compounds of the state of art
Protocol: The thrombocyte aggregation was measured with a Payton type aggregometer of two channels in 0.5 ml. end volume. […] The cubital venal blood was mixed with a 3.8% Na-citrate solution at a ratio of 9:1 and in order to obtain a plasma enriched in thrombocytes (PRP) blood was centrifuged for 5 minutes at 230 g, while plasma poor in thrombocytes was obtained after 10 minutes of centrifuging. The blood platelet number of the plasma was adjusted to […]. The tests were performed within 1 hour after the blood taking. The prostacycline sensitivity of each plasma was controlled before measuring the test substances. IC50 value of prostacycline on plasma enriched in thrombocytes: 0.6-1.0 ng/ml.
Thrombocyte aggregation was induced with 2 μM ADP. The test compounds were dissolved in 0.1M tris-HCl buffer of pH=7.8 and the temperature was maintained at 0° to 4° C.
The compounds were tested repeatedly after some time and were kept in solution at 0°-4° C. IC50 values were calculated graphically.

thrombocyte aggregation [2] = conditions: literature; cited from earlier work
[3] = test system: coronary arteries of the heart; peripheral circulation vessels; conditions: literature; cited from earlier work

SMILES: CCCCCC(O)C=CC1C(O)CC2OC(=Cc3cccc(C(=O)O)c3)CC21 (centres unmarked) [45842/A, 5(Z)-2,3,4-trinor-1,5-inter-m-phenylene-PGI2]
- relative anti-hypertensive efficiency ED25 PGI2 /ED25 test-compound (blood pressure; related to PGI2): 1/10

SMILES: CCCCC[C@H](O)/C=C/[C@@H]1[C@H]2C/C(=C/CCCC(=O)O)O[C@H]2C[C@H]1O [PGI2]
- IC50 (thrombocyte aggregation [1]; Homo sapiens, Platelet, control of prostacycline sensitivity of each plasma): 0.6 to 1 ng/mL (≈ 1.7 to 2.84 nM)
- relative anti-aggregatory efficiency IC50 PGI2 /IC50 test-compound (thrombocyte aggregation [1]; related to PGI2, 2 μM ADP, human PRP, sodium salts): 1/1
- relative anti-hypertensive efficiency ED25 PGI2 /ED25 test-compound (blood pressure; related to PGI2): 1/1
- antiaggregatory and desaggregatory activity (in words) (thrombocyte aggregation [2]): most active antiaggregatory and desaggregatory agent
- further physiological activities (in words) [3]: relaxation of the coronary arteries of the heart and dilatation of the peripheral circulation vessels

SMILES: CCCCCCC(O)C#CC1C(O)CC2OC(=Cc3cccc(C(=O)O)c3)CC21 (centres unmarked) [compound "A", 5(Z)-2,3,4-trinor-1,5-inter-m-phenylene-13,14-didehydro-20-methyl-PGI2]
- antiaggregatory activity (in words) (thrombocyte aggregation [1]): better activity
- hypotensive / antihypertensive side effect (in words) (blood pressure): less side effects

SMILES: CCCCCCCC(O)C#CC1C(O)CC2OC(=Cc3cccc(C(=O)O)c3)CC21 (centres unmarked) [compound "B", 5(Z)-2,3,4-trinor-inter-m-phenylene-13,14-didehydro-20-ethyl-PGI2]
- antiaggregatory activity (in words) (thrombocyte aggregation [1]): better activity; also recorded: substantially the same as that of PGI2
- hypotensive / antihypertensive side effect (in words) (blood pressure): less side effects
- antihypertensive activity as part of the activity of PGI2 (blood pressure; related to PGI2): about 2/100
